Test results published in patent publication US6573276B2, “Muscarinic M1 agonist as an inhibitor of beta-amyloid (Aβ40 and Aβ42)-synthesis” (Boehringer Ingelheim Pharma KG, priority 2001, dated 2003).

Experiments:
Aβ42 = assay: CSF levels of Aβ42 (sandwich ELISA) before and after 4 weeks of treatment, clinical phase II trial; format: in vivo, human
Method: (§1) To test whether this effect also occurs in humans, talsaclidine or placebo were administered to 40 patients with clinical diagnosis of probable senile dementia of Alzheimer-type and measured cerebrospinal fluid (CSF) levels of Aβ40 and Aβ42 before and at the end of 4 weeks of treatment. To control for specificity, CSF levels of both total tau and phosphorylated tau were also measured.
(§2) Diagnosis of probable Alzheimer's disease was made according to the National Institute of Neurological and Communicative Disorders and Stroke-Alzheimer's Disease and Related Disorders Association (NINCDS-ADRDA) as well as ICD10 criteria. All patients were community-dwelling and were referred to the participating dementia clinics from general practitioners, neurologists, and psychiatrists. All patients gave their informed consent and were screened for participation in a clinical phase II trial in accordance with GCP and ICH guidelines. The clinical phase II trial was designed to test the safety and tolerability of talsaclidine. CSF measurements were performed within a scientific add-on protocol and additional separate informed consent to the multicenter clinical trial.
Patients were carefully examined and received a thorough clinical work-up. Psychometric testing included the Mini Mental State Examination (MMSE) as a global screening instrument for dementia, the Alzheimer's Disease Assessment Scale, cognitive part (ADAScog), the Clinical Global Impression (CGI) and the Behavioral Pathology in AD (BEHAVE-AD). There were 40 participants in the study with two CSF samples each. Among the inclusion criteria were age below 85 years, MMSE between 12 and 28, and the absence of relevant systemic disorders.
Talsaclidine was given, in a randomized, double-blind design, three times per day (t.i.d) in a constant dosage with increasing dose panels. Both capsules or tablets of different dose strength were applied. The specific formulations used are outlined in detail below.
The aforementioned pharmaceutical compositions were administered twice daily or three times per day to the patients. The following dosings were applied: 4.5 mg talsaclidine (n=5 patients); 9 mg (n=4); 18 mg (n=4); 36 mg (n=4); 72 mg (n=4); 96 mg (n=4); 108 mg (n=4); 120 mg (n=2); 144 mg (n=3); and placebo (n=6).
Within one week of dementia testing and before treatment, CFS was obtained by lumbar puncture according to conventional techniques. CFS samples were frozen on dry ice immediately upon withdrawal at the bedside in 0.5 ml aliquots and stored at −85° C. until biochemical analyses. A second lumbar puncture was done after four weeks of treatment and the CFS obtained was processed identically to the initial lumbar puncture. All available CFS samples were included in the analyses.
Sandwich ELISA was performed by using precoated plates (INNOTEST β-Amyloid 1-42, 8-well strips; Innogenetics, Belgium) with the capture antibody 21F12 (Innogenetics, Belgium). The capture 21F12 is specific for the free carboxyl terminus of Aβ42 (peptide sequence Aβ33-42). After washing (5×, room temperature), biotinylated antibody 6E10 at […] concentration in blocking buffer (50 mM Tris-HCl pH 7.5; 140 mM NaCl; 5 mM EDTA; 0.05% NP40; 0.25% gelatine; 1% BSA) was added. Each assay plate included a standard curve with highly purified Aβ42. After color development with TMP and Vectastain ABC detection (streptavidin-peroxidase complex, Vectastain Elite ABC Kit), absorbance was read at 450 nm. The linear range of the assay was 30 pg/ml to 5 ng/ml. There was no cross reactivity in either assay with Aβ42 or Aβ40.
Statistical analyses of data were done by Wilcoxon signed-rank tests for paired samples as well as by the Mann-Whitney U test for group comparisons. Bonferroni correction for multiple testing was performed. Analyses of covariates were used to test whether changes correlated with age, gender, or dementia severity.

Aβ formation = details: cell culture and brain slice models; background statement; cited from earlier work
tau protein = assay: CSF levels of tau (sandwich ELISA) before and after 4 weeks of treatment, clinical phase II trial; format: in vivo, human; details: patients
Method: as §1, §2
Patients were carefully examined and received a thorough clinical work-up. […]
The monoclonal antibody AT120 that reacts with both normal and HPF-tau was used in a sensitive sandwich ELISA (Innogenetics, Belgium). […] Absorbance was read at 450 nm. […]

Aβ40 = assay: CSF levels of Aβ40 (sandwich ELISA) before and after 4 weeks of treatment, clinical phase II trial; format: in vivo, human
Method: as §1
as §2, with “CSF measurements were performed within a scientific add-on protocol and additional separate informed consent to the multicenter clinical trial.” left out
Sandwich ELISA was performed with the capture antibody 6E10 (Senetek, Maryland Heights, Mo.). […] After color development with 3,5,3′,5′-tetramethylbenzidine (TMB) and hydrogen peroxide, absorbance was read at 450 nm on a microplate reader (Victor2 Multilabel, EG&G® Wallac). […]

[1] = dosings 4.5 to 144 mg talsaclidine, four weeks
[2] = patients treated with talsaclidine, four weeks

**Q.** Which “dose dependence of the decrease of CSF levels of Aβ42” value (Aβ42; [1]) does the source give for `C#CCOC1CN2CCC1CC2` (stereo not drawn) [talsaclidine] here?
**A.** not dose dependently

**Q.** And the “patients in whom CSF levels of Aβ42 decreased” value (Aβ42; [2])?
**A.** 65%

**Q.** And the “patients in whom CSF levels of Aβ42 did not change” value (Aβ42; [2])?
**A.** 15%

**Q.** What about the “patients in whom CSF levels of Aβ42 increased” value (Aβ42; [2]) of the same compound?
**A.** 20%

**Q.** What about the “mean CSF levels of Aβ42 (mean±SD)” value (Aβ42; patients with probable Alzheimer's disease, talsaclidine group n=34, starting value ('decreased from'), value after four weeks not given) of the same compound?
**A.** 0.126 ± 0.073 ng/mL

**Q.** And the “decrease of CSF levels of Aβ42 over time within the treatment group, median” value (Aβ42; patients, four weeks of treatment, n=34, significant)?
**A.** 17%

**Q.** What about the “decrease of CSF levels of Aβ42 compared to placebo, median” value (Aβ42; patients, four weeks of treatment, talsaclidine n=34 vs placebo n=6, significant) of the same compound?
**A.** 23%

**Q.** And the Aβ formation (Aβ formation)?
**A.** lowers Aβ formation

**Q.** What about the “dose dependence of change of CSF tau” value (tau protein; n=34, dosings 4.5 to 144 mg talsaclidine, four weeks) of the same compound?
**A.** decreased dose dependently

**Q.** And the “CSF tau in total in comparison to placebo” value (tau protein; n=34, four weeks of treatment)?
**A.** did not decrease in total in comparison to placebo

**Q.** What about the “dose dependence of change of CSF levels of Aβ40” value (Aβ40; [1]) of the same compound?
**A.** decreased dose dependently

**Q.** And the “CSF levels of Aβ40 in total in comparison to placebo” value (Aβ40; patients, four weeks of treatment)?
**A.** did not increase in total in comparison to placebo
